Reference: ChEMBL document CHEMBL4330076, “Quinazolin-2,4-dione-Based Hydroxamic Acids as Selective Histone Deacetylase-6 Inhibitors for Treatment of Non-Small Cell Lung Cancer” (J Med Chem, 2019)

Key:
[1] = test system: Lewis lung carcinoma cell line; experiment: Induction of apoptosis in mouse LL/2 cells assessed as viable cells at 4 uM after 24 hrs by Annexin V/propidium iodide staining-based flow cytometric analysis (reference value: 82.3%); format: functional
[2] = test system: Lewis lung carcinoma cell line; experiment: Antitumor activity against mouse LL/2 cells implanted in C57BL/6 mouse assessed as tumor growth inhibition at 20 mg/kg, po qd administered for 21 consecutive days co-administered with paclitaxel at 10 mg/kg, ip qd administered for 5 days relative to control; format: functional

Work on `O=C(NO)c1ccc(Cn2c(=O)n(CCc3ccccc3)c(=O)c3ccccc32)cc1` yielded an Activity [1] of 85.8% and a TGI [2] of 67.5%.
